Measured values published in patent US9107404B2, “Method for reducing undesirable effects on turfgrass” (Ishihara Sangyo Kaisha, Ltd., priority 2010, dated 2015).

Assays:
[1] = test system: bentgrass (breed: penncross); assay: Example 1: bentgrass pot rubbed against mascarenegrass treated with flazasulfuron plus surfactant; conditions: in vivo
Experimental: Soil was put into a 1/300,000 ha pot, and mascarenegrass was cultivated. Further, soil was put into a 1/1,000,000 ha pot, and bentgrass (breed: penncross) was cultivated. A predetermined amount (flazasulfuron: 50 g a.i./ha) of water dispersible granules (tradename: SHIBAGEN DF, manufactured by Ishihara Sangyo Kaisha, Ltd.) containing flazasulfuron as an active ingredient, was diluted with water containing a predetermined amount of a silicone surfactant (tradename: Maku-pika, manufactured by Ishihara Sangyo Kaisha, Ltd.) and applied by foliar treatment to the mascarenegrass by a small spraygun so that the amount of the treating liquid corresponds to 2,000 L/ha. Immediately after the treatment or upon expiration of 6 hours after the treatment, the bentgrass not treated with flazasulfuron was rubbed against the mascarenegrass treated with flazasulfuron (the pot of bentgrass was permitted to slide and reciprocate once).
On 14th day after the treatment with flazasulfuron, the state of growth of the bentgrass was visually observed and investigated, and the growth inhibition rate and the degree of necrosis evaluated in accordance with the following standards are shown in Tables 1 and 2. […]

[2] = test system: bentgrass (breed: Minakuru); assay: Example 4: field test, tester walked on flazasulfuron-treated mascarenegrass, then stepped on bentgrass; conditions: in vivo
Experimental: On ground, mascarenegrass in 50 m^2 (2 m×25 m) and bentgrass (breed: Minakuru) in 0.12 m^2 (0.35 m×0.35 m) were respectively cultivated. A predetermined amount (flazasulfuron: 100 g a.i./ha) of a wettable powder containing flazasulfuron as an active ingredient (tradename: SHIBAGEN WP, manufactured by Ishihara Sangyo Kaisha, Ltd.) was diluted with water containing a predetermined amount of a silicone surfactant (tradename: Silwet L-77, manufactured by Witco) and applied by foliar treatment to the mascarenegrass by a knapsack power sprayer so that the amount of the treating liquid corresponds to 2,000 L/ha. After the treating liquid dried, a tester walked (100 m) on the mascarenegrass treated with flazasulfuron, then walked (10 m) on mascarenegrass not treated with flazasulfuron and then stepped on five times on the bentgrass.
(§1) On 11th day after the treatment with flazasulfuron, the state of growth of the bentgrass was evaluated in the same manner as in Example 3, and the growth inhibition rate and the degree of discoloring are shown in Table 7. Further, as comparative areas, an area wherein Kusa-rino (tradename, the same as in Example 1) was used, and an area wherein no surfactant was used, were provided.

[3] = test system: bentgrass (breed: penncross); assay: Example 2: tester walked on flazasulfuron-treated Japanese lawngrass, then stepped on bentgrass; conditions: in vivo, 21 day
Experimental: Japanese lawngrass was cultivated on ground in 0.6 m^2 (0.4 m×1.5 m). Further, soil was put into a 1/300,000 ha pot, and bentgrass (breed: penncross) was cultivated. A predetermined amount (flazasulfuron: 50 g a.i./ha) of SHIBAGEN DF (tradename, the same as in Example 1) was diluted with water containing a predetermined amount of Maku-pika (tradename, the same as in Example 1) and applied by foliar treatment to the Japanese lawngrass by a small spraygun so that the amount of the treating liquid corresponds to 2,000 L/ha. Immediately after the treatment or upon expiration of 3 hours after the treatment, a tester walked (5 steps) on the Japanese lawngrass treated with flazasulfuron and then stepped on the bentgrass.
as §1, with “21st” for “11th”, “after” for “after the”, “1,” for “3,”, “is” for “and the degree of discoloring are”, “Tables 3 and 4.” for “Table 7.”

[4] = test system: bentgrass (breed: penncross); assay: Example 10: bentgrass rubbed against mascarenegrass treated with flazasulfuron plus surfactant (Breakthru); conditions: in vivo
Experimental: (§2) Soil was put into a 1/300,000 ha pot, and mascarenegrass was cultivated. Further, soil was put into a 1/1,000,000 ha pot, and bentgrass (breed: penncross) was cultivated. A predetermined amount (flazasulfuron: 50 g a.i./ha) of SHIBAGEN DF (tradename, the same as in Example 1) was diluted with water containing a predetermined amount of a silicone surfactant (tradename: Breakthru, manufactured by Sankei Chemical Co., Ltd.) and applied by foliar treatment to the mascarenegrass by a small spraygun, so that the amount of the treating liquid corresponds to 2,000 L/ha. Upon expiration of 6 hours after the treatment, the bentgrass not treated with flazasulfuron, was rubbed against the mascarenegrass treated therewith (the pot of bentgrass was permitted to slide and reciprocate once).
as §1, with “21st” for “11th”, “13.” for “7.”

[5] = test system: bentgrass (breed: penncross); assay: Example 5: bentgrass rubbed against mascarenegrass treated with trifloxysulfuron sodium salt plus surfactant; type: in vivo; conditions: trifloxysulfuron sodium salt 45 g a.i./ha, spreading agent not added, rubbed 6 hours after treatment, 12th day
Experimental: as §2, with “(trifloxysulfuron sodium salt: 45” for “(flazasulfuron: 50”, “water dispersible granules containing trifloxysulfuron sodium salt” for “SHIBAGEN DF (tradename, the same”, “an active ingredient (tradename: Monument water dispersible granules, manufactured by Syngenta Japan K.K.)” for “in Example 1)”, “Maku-pika (tradename, the same as in Example 1)” for “a silicone surfactant (tradename: Breakthru, manufactured by Sankei Chemical Co., Ltd.)”, “trifloxysulfuron sodium salt,” for “flazasulfuron,”
as §1, with “12th” for “11th”, “trifloxysulfuron sodium salt,” for “flazasulfuron,”, “8.” for “7.”

[6] = test system: bentgrass (breed: penncross); assay: Example 7: bentgrass rubbed against mascarenegrass treated with rimsulfuron plus surfactant; conditions: in vivo
Experimental: as §2, with “(rimsulfuron: 35.25” for “(flazasulfuron: 50”, “water dispersible granules containing rimsulfuron” for “SHIBAGEN DF (tradename, the same”, “an active ingredient (tradename: Hurley DF, manufactured by MARUWA Biochemical Co., Ltd.)” for “in Example 1)”, “Maku-pika (tradename, the same as in Example 1)” for “a silicone surfactant (tradename: Breakthru, manufactured by Sankei Chemical Co., Ltd.)”, “rimsulfuron” for “flazasulfuron,”
as §1, with “13th” for “11th”, “rimsulfuron,” for “flazasulfuron,”, “10.” for “7.”, “1) or Surfactant WK (tradename, manufactured by MARUWA Biochemical Co., Ltd.)” for “1)”

[7] = test system: bentgrass (breed: penncross); assay: Example 6: bentgrass rubbed against mascarenegrass treated with asulam plus surfactant; conditions: in vivo
Experimental: Soil was put into a 1/300,000 ha pot, and mascarenegrass were cultivated. Further, soil was put into a 1/1,000,000 ha pot, and bentgrass (breed: penncross) was cultivated. A predetermined amount (asulam: 4625 g a.i./ha) of a treating liquid containing asulam as an active component (tradename: Arsilan liquid preparation, manufactured by Ishihara Sangyo Kaisha, Ltd.) was diluted with water containing a predetermined amount of Maku-pika (tradename, the same as in Example 1), and applied by foliar treatment to the mascarenegrass by a small spraygun so that the amount of the treating liquid corresponds to 2,000 L/ha. Upon expiration of 6 hours after the treatment, the bentgrass not treated with asulam was rubbed against the mascarenegrass treated therewith (the pot of bentgrass was permitted to slide and reciprocate once).
as §1, with “12th” for “11th”, “asulam,” for “flazasulfuron,”, “9.” for “7.”

Question: For `COc1cc(OC)nc(NC(=O)NS(=O)(=O)c2ncccc2C(F)(F)F)n1` [flazasulfuron], which “Bentgrass Necrosis” value [1] is on record?
Answer: Its value is 0.8.

Question: And the “Bentgrass Growth inhibition rate (%)” value ([1]; penncross, bentgrass, 14 day)?
Answer: Its value is 48%.

Question: What about the “Bentgrass Growth inhibition rate (%)” value ([2]; Minakuru, bentgrass, 11 day) of the same compound?
Answer: Its value is 28%.

Question: What about the “Bentgrass Discoloring” value [2] of the same compound?
Answer: The value was 1.0.

Question: What about the “Bentgrass Growth inhibition rate (%)” value [3] of the same compound?
Answer: Its value is 30%.

Question: And the “Bentgrass Discoloring” value [4]?
Answer: The value was 0.5.

Question: And the “Bentgrass Growth inhibition rate” value ([4]; penncross, bentgrass, 21 day)?
Answer: The value was 57%.

Question: How did the “Bentgrass Growth inhibition rate” value [5] turn out when `COc1cc(OC)nc(NC(=O)[N-]S(=O)(=O)c2ncccc2OCC(F)(F)F)n1.[Na+]` [trifloxysulfuron sodium salt] was run?
Answer: Its value is 60%.

Question: And the “Bentgrass Discoloring” value ([5]; degree 0-5.0)?
Answer: The value was 1.5.

Question: Which results are given for `CCS(=O)(=O)c1cccnc1S(=O)(=O)NC(=O)Nc1nc(OC)cc(OC)n1` [rimsulfuron]?
Answer: Bentgrass Discoloring [6]: 1.0; Bentgrass Growth inhibition rate ([6]; penncross, bentgrass, 13 day): 35%

Question: Which results are given for `COC(=O)NS(=O)(=O)c1ccc(N)cc1` [asulam]?
Answer: Bentgrass Discoloring [7]: 2.5; Bentgrass Growth inhibition rate ([7]; penncross, bentgrass, 12 day): 45%
